# According to patent US20120083471A1, “Novel Compounds, Pharmaceutical Compositions Containing Same, Methods of Use for Same, and Methods for Preparing Same” (priority 2008, published 2012):
# Entries after “also recorded” stand apart in the source; their conditions may differ. Read-outs that look alike come from different tables or passages of the source.
# Legend:
# 3T3-L1 adipocytes = assay: Acylglyceride synthesis in 3T3-L1 adipocytes ([14C]palmitate labelling, TLC); type: cell-based, mouse; conditions: for IC50: Mus musculus, 3T3-L1 adipocytes 7 days post-differentiation, 18 h treatment, linear regression, n=3
# Procedure: 3T3-L1 Adipocytes 3T3-L1 cells were differentiated into adipocytes as described 34. Seven days post-differentiation, cells were treated with FSG67 at indicated concentrations for 18 h, then labeled with [14C]palmitate for 2 h. Following Folch extraction, lipids were subjected to polar and non-polar thin-layer chromatography 35. Triglyceride and phosphatidylcholine fractions were quantified with phosphorimaging (Storm 840, Molecular Dynamics, Piscataway, N.J.).
# Mouse 3T3-L1 adipocytes were used to test the effect FSG67 on acylglyceride synthesis in vitro. […] As phosphatidylcholine was the predominant phospholipid synthesized in the 3T3-L1 adipocytes, it is representative of overall cellular phospholipid synthesis. […] Note the decrease in lipid droplets in the FSG67 treated cells compared to vehicle treated controls. Thus, FSG67 inhibits cellular acylglyceride synthesis with an IC50 similar to its inhibition of GPAT activity in mitochondrial preparations.
# lean mice = assay: Acute single-dose FSG67 treatment of lean mice (body weight, food intake); type: in vivo; conditions: single 20 mg/kg ip
# Source text: (§1) DIO and lean mouse models. All animal experimentation was done in accordance with guidelines on animal care and use as established by the Johns Hopkins University School of Medicine IACUC. DIO C57BL6J male mice were obtained from Jackson Laboratory (Bar Harbor, ME) and fed a synthetic diet comprised of 60% calories from fat, 20% from carbohydrate, and 20% from protein (5.2 kcal/g) post-weaning through the experimental procedures (D12492i, Research Diets, Inc., New Brunswick, N.J.). For lean animal studies, twelve-week old C57BL6J male mice (Jackson Laboratory, Bar Harbor, Me.) were fed rodent chow comprised of 13% calories from fat, 58% from carbohydrate, and 29% from protein (4.1 kcal/g) (Prolab RMH 2500, PMI Nutrition International Inc., Brentwood, Mo.). Mice were maintained in 12 hr light-dark cycle at 25° C. for 1 week for acclimatization prior to treatment. In all studies, FSG67 (FASgen, Inc., Baltimore, Md.) was dissolved in RPMI 1640 (Invitrogen, Carlsbad, Calif.).
# (§2) For acute studies, 6 DIO or lean mice were treated with a single dose of FSG67 (20 mg/kg, i.p.) approximately 3 hrs past lights-on. Animal weights and food consumption were measured 18 h after treatment. Following euthanization, the hypothalmuses were harvested to measure orexigenic and anorexigenic neuropeptide gene expression. […] Body weight and food intake were measured daily. In one study, a cohort of mice was pair-fed with amounts consumed by the FSG67-treated animals and mice were monitored with indirect calorimetry (Oxymax Equal Flow System®, Columbus Instruments, Columbus, Ohio). Measurements of VO2 (ml/kg/hr) and VCO2 (ml/kg/hr) were performed and recorded every 15 min. The respiratory exchange ratio (RER) was calculated by Oxymax software, version 5.9, and is defined as ratio of VCO2 to VO2 33. […] Tissues were harvested immediately for RNA extraction; serum was collected and analyzed for glucose, cholesterol, and triglyceride measurements (Bioanalytics, Gaithersburg, Md.). […]
# DIO mice [1] = assay: Acute single-dose FSG67 treatment of DIO mice (body weight, food intake); type: in vivo, mouse; conditions: single 20 mg/kg ip
# Source text: DIO and lean mouse models. All animal experimentation was done in accordance with guidelines on animal care and use as established by the Johns Hopkins University School of Medicine IACUC. DIO C57BL6J male mice were obtained from Jackson Laboratory (Bar Harbor, ME) and fed a synthetic diet comprised of 60% calories from fat, 20% from carbohydrate, and 20% from protein (5.2 kcal/g) post-weaning through the experimental procedures (D12492i, Research Diets, Inc., New Brunswick, N.J.). […]
# as §2, with “treatment.” for “treatment. Following euthanization, the hypothalmuses were harvested to measure orexigenic and anorexigenic neuropeptide gene expression.”
# DIO mice [2] = assay: Chronic 20 d FSG67 treatment of DIO mice, reversibility of weight loss; type: in vivo, mouse
# Source text: as §1
# For acute studies, 6 DIO or lean mice were treated with a single dose of FSG67 (20 mg/kg, i.p.) approximately 3 hrs past lights-on. Animal weights and food consumption were measured 18 h after treatment. Following euthanization, the hypothalmuses were harvested to measure orexigenic and anorexigenic neuropeptide gene expression. In the chronic studies, DIO mice, 4-10 animals per group, were treated daily with FSG67 (5 mg/kg, i.p.) or with RMPI vehicle for the days indicated. Body weight and food intake were measured daily. In one study, a cohort of mice was pair-fed with amounts consumed by the FSG67-treated animals and mice were monitored with indirect calorimetry (Oxymax Equal Flow System®, Columbus Instruments, Columbus, Ohio). Measurements of VO2 (ml/kg/hr) and VCO2 (ml/kg/hr) were performed and recorded every 15 min. The respiratory exchange ratio (RER) was calculated by Oxymax software, version 5.9, and is defined as ratio of VCO2 to VO2 33. After completion of the treatment course, animals were euthanized by CO2 inhalation 4 hrs following the final dose of FSG67. Tissues were harvested immediately for RNA extraction; serum was collected and analyzed for glucose, cholesterol, and triglyceride measurements (Bioanalytics, Gaithersburg, Md.). Fresh liver tissue was snap frozen in liquid N2, sectioned, and stained with hematoxylin and Oil Red O to visualize triglyceride droplets.
# The first chronic treatment experiment was designed to test if weight loss induced by FSG67 was reversible. Four DIO mice per group were treated with FSG67 or vehicle for 20 days. For the entire 32 d trial, weight and food consumption were recorded daily until the FSG67 treated animals regained their original weight. During FSG67 treatment (days 0-20), the mice lost 10.3±0.6% of their body mass while controls gained 4.0±0.5% (p<0.0001, 2-way ANOVA) (FIG. 12a). Average food consumption was reduced during FSG67 treatment (2.6±0.1 g/d, days 1-20) compared to vehicle controls (3.1±0.1 g) (p=0.0008, 2-way ANOVA) (FIG. 12b). Following cessation of treatment, food consumption increased in the FSG67 treatment group to an average of 3.5±0.1 g/d (days 21-32) representing a significant increase in food intake compared to vehicle controls 3.2±0.1 g/d (p=0.006, 2-way ANOVA). The FSG67 treated animals achieved their average pre-treatment weight 11 days following termination of treatment (FIG. 12a).
# DIO mice [3] = assay: 5-day dose ranging study in DIO mice; type: in vivo, mouse; conditions: 5 days
# Procedure: To determine the dose of FSG67 suitable for chronic treatment, we performed a 5-day dose ranging study in DIO mice, four per group, with daily intraperitoneal doses of 1, 2, and 5 mg/kg (FIG. 17). The 5 mg/kg dose led to significant weight loss of 3.9% compared to vehicle controls (p=0.008, 2-way ANOVA). This dose was chosen for the subsequent chronic treatment experiments.
structure (smiles),measurement,setting,value
"CCCCCCCCCS(=O)(=O)Nc1ccccc1C(=O)O [Compound 15g, 2-(Nonylsulfonamido)benzoic acid]",triglyceride / lipid droplet accumulation,"3T3-L1 adipocytes; 3T3-L1 adipocytes, 48 h following treatment, photomicrographs, listed as FSG67",dose-dependent reduction; also recorded: reduction in lipid droplet accumulation
same,IC50,3T3-L1 adipocytes; read-out: IC50 for cellular triglyceride synthesis,33.9 µM
same,IC50,3T3-L1 adipocytes; read-out: IC50 for phosphatidylcholine synthesis,36.3 µM
same,food consumption,lean mice; lean mice,1.4 ± 0.2 g
same,"food consumption, % of vehicle control",lean mice; lean mice,33%
same,overt toxicity,lean mice; lean or DIO mice,No overt toxicity
same,food consumption,DIO mice [1],0.5 ± 0.1 g
same,"food consumption, % of vehicle control",DIO mice [1],41.6%
same,time to pre-treatment weight following termination of treatment,DIO mice [2],11 days
same,body mass lost during treatment,"DIO mice [2]; 5 mg/kg ip daily, 20 d",10.3±0.6%
same,food consumption during treatment,"DIO mice [2]; 5 mg/kg ip daily, days 1-20",2.6 ± 0.1 g/day
same,food consumption following cessation of treatment,DIO mice [2]; days 21-32,3.5 ± 0.1 g/day
same,day of return to original weight,DIO mice [2]; treatment terminated at day 20,32 days
same,weight loss compared to vehicle controls,DIO mice [3]; 5 mg/kg ip daily,3.9%
same,minimum dose that led to significant weight loss,"DIO mice [3]; daily ip, doses 1, 2, 5 mg/kg",5 mg/kg
